Data on 2 compounds can be found in PMC5089669, “Biocatalytic Properties and Structural Analysis of Eugenol Oxidase from Rhodococcus jostii RHA1: A Versatile Oxidative Biocatalyst” (Chembiochem, 2016).

In test [1] the target is T1, Eugenol oxidase (EUGO) (Rhodococcus jostii, UniProt Q0SBK1).
T1 construct: gene RHA1_ro03282; homodimer
T1 sequence (Q0SBK1 1-526): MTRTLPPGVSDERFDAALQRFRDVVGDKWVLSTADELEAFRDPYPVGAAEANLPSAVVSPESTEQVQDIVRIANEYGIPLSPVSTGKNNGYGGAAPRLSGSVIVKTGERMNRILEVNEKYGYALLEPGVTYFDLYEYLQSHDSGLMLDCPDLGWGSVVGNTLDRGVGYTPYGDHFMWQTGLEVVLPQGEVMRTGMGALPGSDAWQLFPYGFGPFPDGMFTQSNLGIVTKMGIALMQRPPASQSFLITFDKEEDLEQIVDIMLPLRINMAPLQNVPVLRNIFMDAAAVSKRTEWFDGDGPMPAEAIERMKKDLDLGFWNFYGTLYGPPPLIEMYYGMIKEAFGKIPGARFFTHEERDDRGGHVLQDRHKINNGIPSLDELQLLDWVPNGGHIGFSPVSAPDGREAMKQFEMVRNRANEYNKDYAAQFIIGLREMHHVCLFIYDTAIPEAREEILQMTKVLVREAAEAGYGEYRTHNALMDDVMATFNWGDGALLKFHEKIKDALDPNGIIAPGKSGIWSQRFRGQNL
Briefly: crystal structure. It is filed as binding. The settings on record: covalent; His390 to C8M of flavin.

The target in test [2] is T1, Eugenol oxidase (EUGO). Put plainly: crystal structure of unsoaked native crystals. In kind it is binding. The settings on record: weak inhibitor; density tentatively assigned, co-purified; active site Tyr-Tyr-Arg.

Each structure is given as a SMILES string.

Turning to `Cc1cc2nc3c(=O)[nH]c(=O)nc-3n(C[C@H](O)[C@H](O)[C@H](O)COP(=O)(O)OP(=O)(O)OC[C@H]3O[C@@H](n4cnc5c(N)ncnc54)[C@H](O)[C@@H]3O)c2cc1C` [FAD], the crystal structure result at Eugenol oxidase (EUGO) [1] is “covalent bond between His390 (equivalent to His422 of VAO) and the C8M atom”.
For `O=C(O)c1ccccc1` [benzoate], the “crystal structure of unsoaked native crystals” value on Eugenol oxidase (EUGO) [2] was “we found benzoate to be a weak EUGO inhibitor”.
